Data: PubChem BioAssay AID463206 (Broad Institute, 2010)
The source made the active and inactive calls.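 Rule for the calls: active = caspase luminescence falls with dose and the half-maximal concentration AC50 from the fitted curve is at or below a set limit; inconclusive = flat fit at 30 to 70% signal loss, or invalid fit; inactive = AC50 above the limit, or signal rises instead.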

These molecules were tested on INS-1E cytokine-induced caspase-3/7, Caspase-Glo luminescence, 48 h (assay: inhibitors of cytokine-induced caspase-3/7 activity, dose response, orthogonal assay for beta-cell apoptosis protection project, INS-1E rat cells, luminescence (AID 463206)).

Row | Compound | AC50
1 | CC(C)C(=O)NC(=S)/C=C1/N(C)c2ccccc2C1(C)C | > 26 µM (inactive)
2 | Cc1ccc2c(c1)nnn2C1CCN(S(=O)(=O)c2ccc(C(=O)N3C(C)CCCC3C)cc2)CC1 (stereo not given) | > 26 µM (inactive)
3 | O=C1CSC(c2ccccc2F)N1 (stereo not given) | > 26 µM (inactive)
4 | CC(=O)Nc1ccc(S(=O)(=O)NC2=C(N3CCN(C)CC3)C(=O)c3ccccc3C2=O)cc1 | > 26 µM (inactive)
5 | CCC(=O)NC(c1ccc(C)cc1)c1cc(Cl)c2cccnc2c1O (stereo not given) | > 26 µM (inactive)
6 | CCc1c(C)sc2nc(C(C)C)nc(SCC(=O)N3CCc4ccccc4C3)c12 | > 26 µM (inactive)
7 | Cc1cc(/C=N/n2cnnc2)c(C)n1-c1ccc(OCc2ccccc2F)cc1 | > 26 µM (inactive)
8 | COc1ccc(Cc2nnc(N/N=C/c3ccc(O)cc3)[nH]c2=O)cc1OC | > 26 µM (inactive)
9 | CC(C)(C)C(=O)NC(=S)NNC(=O)c1ccc(-c2ccccc2)cc1 | > 26 µM (inactive)
10 | N=c1c2c(n(Cc3ccc(Br)cc3)c3c1CCC3)CCCC2 | > 26 µM (inactive)
11 | CC(C)[C@H]1C(=O)O[C@H](C(C)C)C(=O)N(C)[C@@H](C(C)C)C(=O)O[C@H](C(C)C)C(=O)N(C)[C@@H](C(C)C)C(=O)O[C@H](C(C)C)C(=O)N1C | > 26 µM (inactive)
12 | Cn1nc([N+](=O)[O-])nc1Sc1cccc2cccnc12 | > 26 µM (inactive)
13 | Oc1ccc(-c2n[nH]c(C(F)(F)F)c2-c2ccccc2)c(O)c1 | > 26 µM (inactive)
14 | Cc1ccc(NC(=O)c2cc(S(=O)(=O)NCCC3=CCCCC3)ccc2F)cc1F | > 26 µM (inactive)
15 | CN(C)c1nc(N/N=C/c2ccccc2O)nc(Nc2ccc(F)cc2)n1 | > 26 µM (inactive)
16 | Cc1ccc(C(=O)c2c(C)oc3c2C(=O)C(=O)c2ccccc2-3)cc1 | > 26 µM (inactive)
17 | CC[n+]1ccc(/C=C/c2c[nH]c3ccccc23)cc1 | > 26 µM (inactive)
18 | CCCCNc1cc(C)nc(NCc2ccccc2)n1 | > 26 µM (inactive)

Row | Compound | AC50
19 | C=C1[C@@H](O)[C@@H]2O[C@]3(CC[C@H](/C=C/[C@@H](C)[C@@H]4CC(C)=CC5(O[C@H](C[C@@](C)(O)C(=O)OC)CC[C@H]5O)O4)O3)CC[C@H]2O[C@@H]1[C@@H](O)C[C@H](C)[C@H]1OC2(CCCCO2)CC[C@H]1C (stereo not given in full) | > 26 µM (inactive)
20 | O=[N+]([O-])/C=C/c1ccc2c(ccn2Cc2ccccc2)c1 | > 26 µM (inactive)
21 | Oc1ccc(Br)cc1-c1cc(-c2ccc(Cl)cc2)n[nH]1 | > 26 µM (inactive)
22 | Cc1ccc(-c2cnc(NC(=O)CCC(=O)N(C)Cc3ccccc3)n2C)cc1 | > 26 µM (inactive)
23 | COc1ccc(C2C(O)C(c3c[nH]c4ccccc34)=NN2C(=O)CCl)cc1 (stereo not given) | > 26 µM (inactive)
24 | COc1cc(Br)cc(/C=N/NC(=O)Cc2ccc(C(F)(F)F)cc2[N+](=O)[O-])c1O | > 26 µM (inactive)
25 | CCN(CC)c1ccc(/C=N/NC(=O)c2ccoc2C)c(O)c1 | > 26 µM (inactive)
26 | COc1cc(SC#N)ccc1N=Cc1c(C)[nH]n(-c2ccc(C)c(C)c2)c1=O | > 26 µM (inactive)
27 | O=C(N/N=C/c1c(O)ccc2ccccc12)c1cccnc1 | > 26 µM (inactive)
28 | CCCCC(CC)CN=C(N)NC(N)=NCCCCCCN=C(N)NC(N)=NCC(CC)CCCC (stereo not given) | > 26 µM (inactive)
29 | Cc1ccc(NS(=O)(=O)c2ccc(NC(=O)CN(c3cc([N+](=O)[O-])ccc3C)S(C)(=O)=O)cc2)c(C)c1 | > 26 µM (inactive)
30 | CCOc1ccc(/C=N/NC(=O)c2[nH]ncc2Br)c(O)c1 | > 26 µM (inactive)
31 | O=c1[nH]c(NCCCO)nc2c1C1(CCCC1)Cc1ccccc1-2 | > 26 µM (inactive)
32 | CC(C)(C)c1cc[n+](C2=C([O-])c3ccccc3C(=O)/C2=N\S(=O)(=O)c2ccccc2)cc1 | > 26 µM (inactive)
33 | Cc1ccc(NC2=C(N3CCCCC3)C(=O)c3ccccc3C2=O)cc1 | > 26 µM (inactive)
34 | CCOC(=O)c1sc(SC)c2c1CCC/C2=N/OC | > 26 µM (inactive)
35 | Oc1ccc(COCc2ccccc2)c2cccnc12 | > 26 µM (inactive)
